Source: US9924719B2, “Pyridazine compound” (Sumitomo Chemical Company, Limited, priority 2014, dated 2018)

Legend:
Type in all cases: in vivo
[1] = system: housefly (Musca domestica); assay: Test Example 9: treated filter paper with sucrose bait, housefly, 500 ppm; conditions: 0.7 mL on filter paper, female adult housefly, after 24 hours
Experimental: Each formulation comprising the Present compound 5, 17, 25, 26, 27, 31, 35, 36, 37 or 38, or the N-oxide 3, the N-oxide 4, or the N-oxide 5 prepared by the process according to the Formulation example 5 was diluted with water until the concentration of the active ingredient reached 500 ppm to prepare a test chemical solution.
The bottom of the polyethylene cup having 5.5 cm diameter was matted with the same size of a filter paper, and 0.7 mL of the test chemical solution was added dropwise to the filter paper, and 30 mg sucrose as bait was placed in the cup uniformly. Ten (10) heads of female adult housefly (Musca domestica) were released into the polyethylene cup, and the cup was covered with a lid. After 24 hours, the life and death of housefly was investigated, and the number of dead insects was counted, and the mortality of insects was calculated by the following equation. Mortality of insects (%)=(the number of dead insects/the number of test insects)×100

[2] = system: cucurbit leaf beetle (Aulacophora femoralis); assay: Test Example 11: spray on cucumber seedling, cucurbit leaf beetle larvae, 50 ppm; conditions: 120 h, Formulation example 1, spray 30 mL/cup on cucumber, second instar larvae, 25° C., 5 days, read-out: morality of insects
Experimental: Meanwhile, cucumber seedling (on the developmental stage of the third true leaf) was planted in a polyethylene cup, and each of the test chemical solution was sprayed into the seedling in a ratio of 30 mL/cup. After the test chemical solution was dried, the second leaf thereof was cut out, and then installed into a 200 mL cup. Ten (10) heads of the second instar larvae of cucurbit leaf beetle (Aulacophora femoralis) were released into the cup, and the cup was covered with a lid. After the cup was stored at 25° C. for 5 days, the number of the dead insects was counted, and the mortality of insects was calculated by the following equation. Morality (%)−{the number of the dead insects/the number of the test isects}×100

[3] = system: cotton aphid (Aphis gossypii); assay: Test Example 1: foliar spray on cucumber seedling infested with cotton aphid, 500 ppm; conditions: 144 h, spray 20 mL/seedling on cucumber, 6 days after spraying, read-out: controlling value
[4] = system: cotton aphid (Aphis gossypii); assay: Test Example 2: foliar spray on cucumber seedling infested with cotton aphid, 200 ppm; conditions: 144 h, spray 20 mL/seedling on cucumber, 6 days after spraying, read-out: controlling value
[5] = system: house mosquito (Culex pipiens pallens); assay: Test Example 10: house mosquito larvae in treated water; conditions: 0.7 mL of 500 ppm solution in 100 ml water (3.5 ppm), last instar larvae, after 1 day
Experimental: The formulation comprising the Present compounds 4 prepared by the process according to the Formulation example 5 was diluted with water until the concentration of the active ingredient reached 500 ppm to prepare a test chemical solution.
Zero point seven(0.7) mL of the testg chemical solution was added to ion-changed water 100 ml (the concentrataion of the active ingredient was 3.5 ppm). Twently (20) heads of the last instar larvae of […] house mosquito (Culex pipiens pallens) were released […], and after 1 day, the life and death of house mosquito was investigated, and the number of dead insects was counted, and the mortality of insects was calculated by the following equation. Mortality of insects (%)=(the number of the dead insects/the number of the test insects)×100

[6] = system: brown planthopper (Nilaparvata lugens); assay: Test Example 5: spray on rice seedling, brown planthopper, 200 ppm; conditions: 144 h, 10 mL spray on rice seedling, 3rd to 4th instar larvae, after 6 days, 25° C., read-out: controlling value
[7] = system: cabbage moth (Plutella xylostella); assay: Test Example 7: spray on cabbage seedling, cabbage moth larvae, 500 ppm; conditions: 120 h, spray 20 mL/cup on cabbage, 2nd instar larvae, 25° C., 5 days, read-out: morality of insects
Experimental: (§1) Meanwhile, cabbage seedling (on the developmental stage of the third true leaf) was planted in a polyethylene cup, and each of the test chemical solution was sprayed into the cabbage seedling in a ratio of 20 mL/cup. After the test chemical solution was dried, the stem and leaf thereof was cut out and then installed into a 50 mL cup. Five (5) heads of 2nd instar larvae of cabbage moth (Plutella xylostella) were released into the cup, and the cup was covered with a lid. After the cup was stored at 25° C. for 5 days, the number of the dead insects was counted, and the mortality of insects was calculated by the following equation. Morality (%)=([…]the number of the dead insects/the number of the test insects)×100

[8] = system: cabbage moth (Plutella xylostella); assay: Test Example 8: spray on cabbage seedling, cabbage moth larvae, 200 ppm; conditions: 120 h, spray 20 mL/cup on cabbage, 2nd instar larvae, 25° C., 5 days, read-out: morality of insects
Experimental: as §1, with “of the surviving insects/the number” for “of the dead insects/the number”

Row | Structure (SMILES) | morality of insects [1] [%] | pest or weed control at 50 ppm [2] [%] | pest or weed control at 500 ppm [3] [%] | pest or weed control at 200 ppm [4] [%] | insect mortality [5] [%] | pest or weed control at 200 ppm [6] [%] | pest or weed control at 500 ppm [7] [%] | pest or weed control at 200 ppm [8] [%]
1 | CCS(=O)(=O)c1cccnc1-c1n[n+]([O-])c(OCC(F)(F)C(F)(F)F)cc1C [N-oxide 3] | 100 |  |  |  |  |  |  | 
2 | CCS(=O)(=O)c1cc(C(F)(F)F)cnc1-c1ccc(OCC(F)(F)C(F)(F)F)[n+]([O-])n1 [N-oxide 4] | 100 |  |  |  |  |  |  | 
3 | CCS(=O)(=O)c1cc(C(F)(F)F)cnc1-c1ccc(OCC(F)(F)C(F)F)[n+]([O-])n1 [N-oxide 5] | 100 |  |  |  |  |  |  | 
4 | CCS(=O)(=O)c1cc(C(F)(F)F)ccc1-c1ccc(OCC(F)(F)F)nn1 [Present compound 1] |  | ≥ 85 |  |  |  |  |  | 
5 | CCS(=O)(=O)c1cccnc1-c1ccc(OCC(Cl)(Cl)Cl)nn1 [Present compound 4] |  | ≥ 85 | ≥ 90 | ≥ 90 | ≥ 95 |  |  | 
6 | CCS(=O)(=O)c1cccnc1-c1ccc(OCC(F)(F)F)nn1 [Present compound 5] | 100 |  |  |  |  |  |  | 
7 | CCS(=O)(=O)c1cccnc1-c1ccc(OCC(F)(F)C(F)F)nn1 [Present compound 8] |  | ≥ 85 | ≥ 90 | ≥ 90 |  | ≥ 90 | ≥ 80 | ≥ 80
8 | CCS(=O)(=O)c1cccnc1-c1ccc(OCC(F)(F)C(F)(F)C(F)(F)F)nn1 [Present compound 17] | 100 |  |  |  |  |  |  | 
9 | CCS(=O)(=O)c1cccnc1-c1ccc(OCC(C)(C(F)(F)F)C(F)(F)F)nn1 [Present compound 25] | 100 |  |  |  |  |  |  | 
10 | CCC(Oc1ccc(-c2ncccc2S(=O)(=O)CC)nn1)C(F)(F)F (stereo not drawn) [Present compound 26] | 100 |  |  |  |  |  |  | 
11 | CCSc1cccnc1-c1ccc(OCC(F)(F)C(F)(F)F)nn1 [Present compound 27] | 100 | ≥ 85 | ≥ 90 | ≥ 90 |  | ≥ 90 | ≥ 80 | ≥ 80
12 | CCS(=O)(=O)c1cc(C(F)(F)F)cnc1-c1ccc(OCC(F)(F)C(F)(F)F)nn1 [Present compound 28] |  | ≥ 85 |  | ≥ 90 |  | ≥ 90 |  | ≥ 80
13 | CC[S+]([O-])c1cccnc1-c1ccc(OCC(F)(F)C(F)(F)F)nn1 (stereo not drawn) [Present compound 29] |  | ≥ 85 | ≥ 90 | ≥ 90 |  | ≥ 90 |  | 
14 | CCS(=O)(=O)c1cccnc1-c1nnc(OCC(F)(F)C(F)(F)F)cc1C [Present compound 30] |  |  |  |  |  |  |  | ≥ 80
15 | CCS(=O)(=O)c1cc(C(F)(F)F)cnc1-c1ccc(OCC(F)(F)C(F)F)nn1 [Present compound 31] | 100 |  |  |  |  |  |  | 
16 | CCS(=O)(=O)c1cccnc1-c1cc(C(F)(F)F)c(OCC(F)(F)C(F)F)nn1 [Present compound 33] |  |  | ≥ 90 |  |  |  | ≥ 80 | ≥ 80
17 | CCS(=O)(=O)c1cccnc1-c1cc(C(F)(F)F)c(OCC(F)(F)C(F)(F)F)nn1 [Present compound 34] |  | ≥ 85 | ≥ 90 |  |  |  | ≥ 80 | ≥ 80
18 | CCS(=O)(=O)c1cccnc1-c1cc(C)c(OCC(F)(F)C(F)F)nn1 [Present compound 35] | 100 | ≥ 85 | ≥ 90 | ≥ 90 |  | ≥ 90 | ≥ 80 | ≥ 80
19 | CCS(=O)(=O)c1cccnc1-c1cc(C)c(OCC(F)(F)C(F)(F)F)nn1 [Present compound 36] | 100 |  | ≥ 90 | ≥ 90 |  | ≥ 90 | ≥ 80 | ≥ 80
20 | CC[S+]([O-])c1cccnc1-c1cc(C)c(OCC(F)(F)C(F)F)nn1 (stereo not drawn) [Present compound 37] | 100 |  | ≥ 90 | ≥ 90 |  | ≥ 90 | ≥ 80 | 
21 | CC[S+]([O-])c1cccnc1-c1cc(C)c(OCC(F)(F)C(F)(F)F)nn1 (stereo not drawn) [Present compound 38] | 100 |  | ≥ 90 | ≥ 90 |  | ≥ 90 | ≥ 80 | ≥ 80
